Experimental data published in patent US4172941A, “7-[2-[ω-(1,3-Dit hiolan-2-imino)substituted]-acetylamino]cephalosporanic acid derivatives” (Richardson-Merrell Inc., priority 1978, dated 1979).
Values after ≈ are worked out from the molar mass of the structure shown.

Key:
Streptococcus pyogenes [1] = experiment: in vivo protection of mice challenged with a fatal bacterial infection; settings: sc, subcutaneous, 1 and 4 hours after challenge, dose per treatment protecting fifty percent
Protocol: (§1) The following example illustrates the in vivo activity of the compounds of this invention.
(§2) Several groups of 10 mice are challenged with a fatal bacterial infection. Various dose levels of the test compound are administered orally or subcutaneously to separate groups of these animals 1 and 4 hours after challenge. After three of four days, depending upon the test organism, the number of survivors are recorded at each dose level and the dose required per treatment to protect fifty percent of the infected mice (ED50) is calculated by the method described by Reed and Muench, Amer. J. Hyg. 27, 493-497 (1938).

[2] = tested on: Salmonella schottmuelleri; experiment: in vitro minimal inhibitory concentration, two-fold serial dilutions in trypticase soy broth; type: cell-based; settings: 24 hours at 37° C.
Protocol: (§3) The following example illustrates the in vitro activity of the compounds of this invention.
(§4) Two-fold serial dilutions of the test compounds are made in trypticase soy broth. A series of tubes of broth containing different concentrations of the test compounds are inoculated with the particular bacterial culture used for in vitro activity. The inoculated tubes are examined for the inhibition of bacterial growth after 24 hours of incubation at 37° C. The following table summarizes the minimal inhibitory concentration (MIC) for various bacterial test cultures using the following compounds: […]

Streptococcus pyogenes [3] = experiment: as above; type: cell-based; settings: 24 hours at 37° C.
Protocol: as §3, §4

Staphylococcus aureus = experiment: as above; type: cell-based; settings: 24 hours at 37° C.
Protocol: as §3, §4

Escherichia coli = experiment: as above; type: cell-based; settings: 24 hours at 37° C.
Protocol: as §3, §4

Diplococcus pneumonae = experiment: as above; type: cell-based; settings: 24 hours at 37° C.
Protocol: as §3, §4

Salmonella schotmuelleri = experiment: in vivo protection of mice challenged with a fatal bacterial infection; settings: sc, subcutaneous, 1 and 4 hours after challenge, dose per treatment protecting fifty percent
Protocol: as §1, §2

Diplococcus pneumoniae = experiment: as above; settings: Streptococcus pneumoniae, 1 and 4 hours after challenge, dose per treatment protecting fifty percent
Protocol: as §1, §2

Row | Structure (SMILES) | ED50 (Streptococcus pyogenes [1]) [mg/kg] | MIC [2] [µg/mL] | MIC (Streptococcus pyogenes [3]) [µg/mL] | MIC (Staphylococcus aureus) [µg/mL] | MIC (Escherichia coli) [µg/mL] | MIC (Diplococcus pneumonae) [µg/mL] | ED50 (Salmonella schotmuelleri) [mg/kg] | ED50 (Diplococcus pneumoniae; po, per os) [mg/kg] | ED50 (Diplococcus pneumoniae; sc, subcutaneous) [mg/kg]
1 | CC(=O)OCC1=C(C(=O)O)N2C(=O)C(NC(=O)C(O)c3ccc(N=C4SCCS4)cc3)C2SC1 (stereo not drawn) [Compound D, 7-[2-[p-(1,3-dithiolan-2-imino)phenyl]-2-hydroxyacetylamino]cephalosporanic acid] | 2.2 | 50 (≈ 95.5 µM) | < 0.05 | 0.4 (≈ 0.764 µM) | 200 (≈ 382 µM) | < 0.05 | – | – | –
2 | CC1=C(C(=O)O)N2C(=O)C(NC(=O)C(N=C3SCCS3)c3ccccc3)C2SC1 (stereo not drawn) [Compound B, 7-[2-(1,3-dithiolan-2-imino)-2-phenylacetylamino]desacetoxycephalosporanic acid] | 48 | > 100 | 6.2 (≈ 13.8 µM) | 25 (≈ 55.6 µM) | > 100 | 12.5 (≈ 27.8 µM) | – | – | –
3 | CC1=C(C(=O)O)N2C(=O)C(NC(=O)C(N)c3ccc(N=C4SCCS4)cc3)C2SC1 (stereo not drawn) [Compound C, 7-[2-amino-2-[p-(1,3-dithiolan-2-imino)phenyl]acetylamino]desacetoxycephalosporanic acid] | 0.5 | > 100 | ≤ 0.05 | 3.1 (≈ 6.67 µM) | > 100 | ≤ 0.05 | > 100 | 4.1 | 5
4 | CC(=O)OCC1=C(C(=O)O)N2C(=O)C(NC(=O)CN=C3SCCS3)C2SC1 (stereo not drawn) [Compound A, 7-[2-(1,3-dithiolan-2-imino)acetylamino]cephalosporanic acid] | 15.3 | 12.5 (≈ 29 µM) | 0.4 (≈ 0.927 µM) | 0.4 (≈ 0.927 µM) | 50 (≈ 116 µM) | 0.1 (≈ 0.232 µM) | – | – | –
